Results taken from patent US20060089260A1, “Nitrification inhibitor treatment of grazed pasture soils” (priority 2002, published 2006).
“And” between values parts separate entries of the source, which are not always exact repeats. Identical values can stand only once.

How the values were obtained:
[1] = system: nitrification in soil (oxidation of NH4+ to NO2−); assay: Lysimeter study of NO3−-N leaching from grazed dairy pasture soil (Lismore stony silt loam); conditions: for Total annual NO3−-N leaching loss: lysimeter
Excerpt: (§1) Lysimeter studies, which are state-of-the-art technology for these investigations, have shown the effectiveness of a nitrification inhibitor, dicyandiamide (DCD), in reducing NO3^−—N leaching from a grazed dairy pasture under irrigation. This example used a free-draining Lismore stony silt loam (Udic Haplustept loamy skeletal) and the pasture was a mixture of perennial ryegrass (Lolium perenne) and white clover (Tifolium repens) but the process is applicable to all temperate soils and animal grazing systems.
(§2) Undisturbed soil monolith lysimeters, 50 cm diameter and 70 cm deep, were collected following well-established protocols and procedures that ensure there is minimal disturbance to the soil structure inside. The lysimeters were transported to a lysimeter facility near Lincoln University, using a specially designed trailer with air-bag suspension to minimize disturbance. The gap between the soil core and the metal casing was sealed using petroleum jelly to stop edge-flow effects. The lysimeters were then installed in the field lysimeter facility with the surface of the lysimeters at the same level as that of the surrounding soil surface, in order to maintain normal plant growing conditions.
(§3) Each treatment had 4 replicates. The treatments were allocated to the lysimeters in a randomised design. The urea application rate of 200 kg N ha^−1 y^−1 was at the higher end of fertilizer N application rates for most farmers in the region. The rates of urea were either split into 8 applications to maximize N efficiency, or 4 applications as a cost cutting measure (i.e. reducing application costs). Urine was applied either in the spring (November) or in the autumn (April) to simulate urine patches deposited in the spring or autumn by a grazing dairy cow. The urine application rate of 1000 kg N ha^−1 was equivalent to the typical N loading rate under a cow urine patch. The combination of urea with urine treatments was included to represent a situation where urea was applied throughout the paddock, and patches of the paddock received cow urine. Two rates of phosphate (P) fertilizer were applied, 45 or 90 kg P ha^−1 y^−1, to represent the range of P application rates used by local dairy farmers. As the purpose of this study was to determine the effectiveness of DCD in reducing NO3^− leaching from grazed pasture soil including cow urine patch areas, DCD was either applied or withheld. The DCD was applied in a liquid form to simulate application in the irrigation water on irrigated dairy farms or by spray vehicle.
Urea was applied in solid form and was broadcast over the surface of the lysimeters followed by 10 mm of irrigation.
Fresh urine was collected early in the morning during the milking session from Friesian cows, and was analysed and applied to the lysimeters on the same day.
(§4) DCD was applied in solution form (100 mL per lysimeter) at the rates of 7.5 kg ha^−1 after each urea application in the same day, or 15 kg ha^−1 immediately after each urine application. The DCD solution was sprayed onto the lysimeters with a watering can, simulating an application by an irrigator or spray vehicle.
(§5) From November to April (late spring to mid autumn), flood irrigation, at 100 mm, was applied to all the lysimeters at about three weekly intervals. The amount of water applied was to represent the average amount of water applied on commercial flood-irrigated dairy farms. Irrigation water was applied using an electronically controlled metering system to deliver the required volume of water to the lysimeters. From May to October (late autumn to mid spring), simulated rainfall was applied at the end of each month (if necessary), to supplement the natural rainfall received in order to equal the 75th percentile of local rainfall records for the same period of the year. This was done to create a so-called ‘worst case scenario’ in terms of rainfall inputs and to ensure a standard condition was achieved.

[2] = system: pasture, mixture of perennial ryegrass (Lolium perenne) and white clover (Tifolium repens); assay: Lysimeter study of pasture yield and pasture N off-take; conditions: for Increase in pasture yields: lysimeters
Excerpt: as §1, §3, §4
The herbage was cut periodically to simulate typical grazing practice. All the harvested herbage was removed and dry matter yield recorded. Herbage nitrogen content was analysed. Following each herbage cut, a specially designed mechanical cow hoof was used to simulate cow treading on the lysimeters. The mechanical hoof is made of stainless steel with identical shape and size as an adult Friesian cow hoof. The hoof is mounted onto a compressed air-ram, which is driven by an air compressor system to provide a treading pressure of 220 kPa to simulate the treading pressure exerted by a cow's hoof during walking. The entire surface of the lysimeters was trodden once following each herbage cut. This was based on the inventors observation of hoof print coverage following each grazing rotation.

[3] = system: nitrification in soil (oxidation of NH4+ to NO2−); assay: Nitrous oxide emissions from urine-treated lysimeters, closed chamber method; conditions: for Total nitrous oxide emission: urine + DCD, standard error of the mean in brackets; for Nitrous oxide (N2O) emissions: with DCD
Method: Nitrous oxide emissions from two treatments were determined using a closed chamber method. The enclosed chamber was fitted on top of the lysimeters inside a rubber ring on top of the lysimeter casing. At each sampling time, 3 samples, 10-15 minutes apart, were taken. Nitrous oxide was analysed using gas chromatography and daily N2O fluxes were calculated based on daily mean temperatures.

grazed dairy pasture = assay: Field plot experiment on Temuka soil, pasture response to DCD; conditions: for Pasture yield: with DCD applied
Method: A field plot experiment was established on a Temuka soil on the Lincoln University Dairy farm to determine pasture response to DCD applications. A total of six plots, each 100 m^2 in area were set up. Fresh cow urine was collected from dairy cows and was analysed for N concentration. The urine was then applied to eight areas (0.2 m^2 each) within each plot to simulate urine patches deposited by the grazing cow. Urea was applied to the plots as per the rest of the farm at 200 kg N/ha. Phosphate fertilizer (superphosphate) was applied at 45 kg P/ha per year as per the rest of the dairy farm.
Three of the plots received the DCD treatment DCD was applied in a solution form to the whole area of each plot by spray equipment similar to those used to spray other agrochemicals. The DCD was applied twice each year (one in the autumn (May) and one in the spring (August)) at 10-15 kg/ha for each application.
Spray irrigation was applied between spring and autumn when necessary through a central pivot irrigator as per the rest of the dairy farm. Pasture from the simulated urine patch areas and from adjacent non-urine patch areas was cut and removed. Following the pasture cut, the plots were then grazed by dairy cows.
Dry matter yield was recorded from the urine patch and non-urine patch areas (Table 2). Pasture yield was calculated at the paddock scale as described above (Table 2).

[4] = system: nitrification in soil (oxidation of NH4+ to NO2−); assay: Potassium, calcium and magnesium leaching losses, paddock-averaged; conditions: calculated paddock average
Excerpt: as §1, §2, §3, §4, §5

nitrification in soil [5] = conditions: cited from earlier work
nitrification in soil [6] = conditions: cited from earlier work; remark: listed apart in the source

N#CN=C(N)N [DCD, dicyandiamide]
Reduction of NO3−-N leaching, annual average ([1]; average of autumn and spring urine): 59% | Paddock averaged NO3−-N concentration in the drainage water ([1]; calculated paddock average, urea 200 + grazing, urine patches 25% of paddock, DCD applied): 7.7 mg N L−1 | Leaching losses from paddock (annual NO3−-N) ([1]; calculated paddock average, urea 200 kg N ha−1 y−1 + grazing, urine patches 25% of paddock (3 cows per ha), DCD applied): 46 kg N ha−1 y−1 and 46.1 kg N ha−1 y−1 | Total annual NO3−-N leaching loss ([1]; autumn urine, P 90 treatment, with DCD (Treatment 6), 488 without DCD): 112 kg N ha−1 y−1 | Total annual NO3−-N leaching loss ([1]; urine 1000 kg N ha−1 applied in autumn, with DCD (Treatment 4), 516 without DCD): 128 kg N ha−1 y−1 | Total annual NO3−-N leaching loss ([1]; urine applied in spring, with DCD (Treatment 8), 397 without DCD): 230 kg N ha−1 y−1 | Reductions in the amount of urine N leached ([1]; span spring to autumn urine application): 42.1-76.1% | Reduction of NO3−-N leaching ([1]; urine-N applied in the autumn, average): 76% and 76.1% | Reduction of NO3−-N leaching ([1]; urine-N applied in the spring): 42% and 42.1% | Increase in pasture N off-take ([2]; autumn urine treatments): 23% | Increase in pasture N off-take, annual average ([2]; average of autumn and spring): 16% | Increase in pasture yields ([2]; autumn urine treatments, average): 49% | Increase in pasture yields ([2]; spring urine treatments): 17.5% | Increase in pasture N off-take ([2]; spring urine treatments): 9% | Annual average increase in pasture production ([2]; treating the whole surface area with DCD): more than 15% | Pasture production ([2]; with DCD, 11.4 without DCD): 15.0 t ha−1 y−1 | Total nitrous oxide emission ([3]; autumn application, 26.7 (5.9) without DCD): 7.0 (2.3) kg N2O/ha | Total nitrous oxide emission ([3]; spring application, 18.0 (2.9) without DCD): 4.5 (0.7) kg N2O/ha | Nitrous oxide (N2O) emissions ([3]; spring urine application, 18.0 without DCD): 4.5 kg N2O—N ha−1 | Nitrous oxide (N2O) emissions ([3]; urine application in autumn, 26.7 without DCD): 7.0 kg N2O—N | Paddock averaged pasture yield (grazed dairy pasture; field plots, Temuka soil, calculated paddock average, with DCD, 11.1 without DCD): 13.0 t ha−1 y−1 | Pasture yield (grazed dairy pasture; field plots, Temuka soil, non-urine patch areas, 10.3 without DCD): 12.3 t ha−1 y−1 | Pasture yield (grazed dairy pasture; field plots, Temuka soil, urine patch areas, 13.4 without DCD): 15.1 t ha−1 y−1 | Increase of pasture production from the whole of the grazed pasture (grazed dairy pasture; paddock average, Table 2): more than 15% | % decrease due to DCD, calcium (Ca2+) leaching [4]: 50% | % decrease due to DCD, magnesium (Mg2+) leaching [4]: 52% | % decrease due to DCD, potassium (K+) leaching [4]: 65% | Leaching losses of magnesium (Mg2+), with DCD ([4]; 25% of area urine patches, 17 without DCD): 8 kg ha−1y−1 | Leaching losses of potassium (K+), with DCD ([4]; 25% of area urine patches, 48 without DCD): 17 kg ha−1y−1 | Leaching losses of calcium (Ca2+), with DCD ([4]; 25% of area urine patches, 213 without DCD): 107 kg ha−1y−1 | Response in pasture yield or N uptake to DCD application (nitrification in soil [5]; dairy cattle urine patches, field): no significant response | Effect on nitrification rate in the soil (nitrification in soil [5]; measured in the field): slowed down the nitrification rate in the soil | Reduction in N leached achieved by applying DCD (nitrification in soil [6]; DCD added to dairy farm effluent, repeated, high effluent-N loadings during winter): not sufficient to avert high N losses and environmental damage | Reduction in the amount of NO3−-N leached (nitrification in soil [6]; DCD combined with farm dairy effluent (dirty water)): 18%
